The source of these data is paper PMC9081267 (Nature microbiology, 2022).

Structures are written as SMILES.

This assay addresses T1, bovine pancreatic trypsin (Bos taurus, UniProt P00760).
T1 sequence (P00760 24-246): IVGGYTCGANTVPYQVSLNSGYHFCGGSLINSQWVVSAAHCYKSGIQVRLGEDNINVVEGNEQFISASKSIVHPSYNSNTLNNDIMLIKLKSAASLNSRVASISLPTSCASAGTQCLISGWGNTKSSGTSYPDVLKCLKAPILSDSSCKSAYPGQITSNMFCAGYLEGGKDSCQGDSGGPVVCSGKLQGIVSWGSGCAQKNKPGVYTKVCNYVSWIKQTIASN
Put plainly: fluorogenic AMC substrate hydrolysis, kinetic read, non-linear regression. It counts as biochemical.
`C=CC1=C(C)/C(=C/C2=NC(=C\c3[nH]c(/C=C4\NC(=O)C(C)=C4C=C)c(C)c3CCC(=O)O)/C(CCC(=O)O)=C2C)NC1=O` [Biliverdin] showed an IC50 of 12.7 µM.
The value for `CCC1=C(C)/C(=C/c2[nH]c(Cc3[nH]c(/C=C4\NC(=O)C(C)=C4CC)c(C)c3CCC(=O)O)c(CCC(=O)O)c2C)NC1=O` [Mesobilirubin] was 3.86 µM; that for `C=CC1=C(C)/C(=C/c2[nH]c(Cc3[nH]c(/C=C4\NC(=O)C(C)=C4C=C)c(C)c3CCC(=O)O)c(CCC(=O)O)c2C)NC1=O` [Unconjugated Bilirubin] was 3.48 µM.
`CCC1=C(C)C(Cc2[nH]c(Cc3[nH]c(CC4NC(=O)C(C)=C4CC)c(C)c3CCC(=O)O)c(CCC(=O)O)c2C)NC1=O` (stereo not shown) [Urobilinogen]: it took 4.83 µM to reach half-maximal inhibition (IC50).

The term IC50 denotes the concentration that inhibits the measured activity by half. A high value points to weaker potency.
